Key:
[1] = molecular target: T1, serotonin reuptake site (Rattus norvegicus, UniProt P31652); test: Displacement of 3H-paroxetine at the serotonin reuptake site; type: binding; details: rat brain without cerebellum, read-out: IC50, serotonin reuptake sites
T1 construct: rat brain from which the cerebellum has been removed; from tissue; host or cells: rat brain without cerebellum
Experimental: (§1) A-2: Study of the binding of the compounds of the invention to the serotonin reuptake site as well as to 5-HT1, 5-HT1A, 5-HT1B, 5-HT1D, 5-HT2, 5-HT2C, 5-HT4 serotoninergic receptors.
(§2) The binding of the compounds of the invention is measured in accordance with conventional methods.
for the serotonin reuptake site, by the displacement of ^3 H-paroxetinein rat brain from which the cerebellum has been removed, […]

[2] = molecular target: 5-HT1 receptors; test: Displacement of 5-OH tryptamine at 5-HT1 receptors; type: binding; details: pig frontal cortex and striatum
Experimental: as §1, §2
for 5-HT1 receptors, by the displacement of 5-OH tryptamine in pig frontal cortex and striatum, […]

[3] = molecular target: T2, 5-HT1A receptors (Rattus norvegicus, UniProt P19327); test: Displacement of 8-OH-DPAT at 5-HT1A receptors; type: binding; details: rat hippocampus homogenates
T2 construct: rat hippocampus homogenates; from tissue; host or cells: rat hippocampus
T2 sequence (P19327 1-422): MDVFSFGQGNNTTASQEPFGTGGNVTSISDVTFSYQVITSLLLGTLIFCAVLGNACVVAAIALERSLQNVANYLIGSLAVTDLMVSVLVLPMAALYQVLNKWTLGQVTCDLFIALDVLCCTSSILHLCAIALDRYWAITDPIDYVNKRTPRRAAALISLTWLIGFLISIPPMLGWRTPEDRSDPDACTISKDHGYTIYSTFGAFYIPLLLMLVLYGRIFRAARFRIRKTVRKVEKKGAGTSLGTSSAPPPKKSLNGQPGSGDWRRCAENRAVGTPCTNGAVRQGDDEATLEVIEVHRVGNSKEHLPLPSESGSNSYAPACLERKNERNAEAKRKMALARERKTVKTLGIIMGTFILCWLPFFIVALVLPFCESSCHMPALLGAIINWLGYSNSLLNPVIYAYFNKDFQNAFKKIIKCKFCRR
Experimental: as §1, §2
for 5-HT1A receptors, by the displacement of 8-OH-DPAT in rat hippocampus homogenates, […]

[4] = molecular target: T3, 5-HT1B receptors (Rattus norvegicus, UniProt P28564); test: Displacement of 5-hydroxytryptamine at 5-HT1B receptors; type: binding; details: rat cortex, striatum, and globus pallidus homogenates
T3 construct: rat cortex, striatum, and globus pallidus homogenates; from tissue; host or cells: rat cortex, striatum and globus pallidus
Experimental: as §1, §2
for 5-HT1B receptors, by the displacement of 5-hydroxytryptamine in rat cortex, striatum, and globus pallidus homogenates, […]

[5] = molecular target: 5-HT1D receptors; test: Displacement of 5-OH-tryptamine at 5-HT1D receptors; type: binding; details: rat cortex, striatum and globus pallidus homogenates
Experimental: as §1, §2
for 5-HT1D receptors, by the displacement of 5-OH-tryptamine in rat cortex, striatum and globus pallidus homogenates, […]

[6] = molecular target: T4, 5-HT2 receptors (Rattus norvegicus, UniProt P14842); test: Displacement of aminoiodoketaneserine at 5-HT2 receptors; type: binding; details: rat frontal cortex homogenates
T4 construct: rat frontal cortex homogenates; from tissue; host or cells: rat frontal cortex
Experimental: as §1, §2
for 5-HT2 receptors, by the displacement of aminoiodoketaneserine in rat frontal cortex homogenates, […]

[7] = molecular target: T5, 5-HT2C receptors (Rattus norvegicus, UniProt P08909); test: Displacement of N-methylmesulergine at 5-HT2C receptors; type: binding; details: rat frontal cortex and hippocampus homogenates
T5 construct: rat frontal cortex and hippocampus homogenates; from tissue; host or cells: rat frontal cortex and hippocampus
T5 sequence (P08909 33-460): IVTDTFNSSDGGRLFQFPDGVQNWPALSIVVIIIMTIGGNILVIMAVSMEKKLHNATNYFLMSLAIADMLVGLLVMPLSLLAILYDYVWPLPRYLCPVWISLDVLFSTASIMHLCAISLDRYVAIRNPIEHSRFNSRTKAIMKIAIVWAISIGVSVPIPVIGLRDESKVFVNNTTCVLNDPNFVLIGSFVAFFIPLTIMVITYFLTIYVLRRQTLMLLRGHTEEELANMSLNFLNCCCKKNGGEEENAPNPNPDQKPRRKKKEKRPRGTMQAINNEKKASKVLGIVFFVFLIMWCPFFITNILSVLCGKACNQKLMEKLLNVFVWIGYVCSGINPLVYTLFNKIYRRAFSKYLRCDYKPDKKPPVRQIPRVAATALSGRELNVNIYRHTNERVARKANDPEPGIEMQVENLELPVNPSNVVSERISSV
Experimental: as §1, §2
for 5-HT2C receptors, by the displacement of N-methylmesulergine in rat frontal cortex and hippocampus homogenates, […]

[8] = molecular target: T6, 5-HT3 receptors (Rattus norvegicus, UniProt P35563); test: Displacement of 3H-zacopride at 5-HT3 receptors; type: binding; details: 0.3-0.4 nM 3H-zacopride, rat area postrema homogenates, pH 7.4, 25° C., 30 minutes
T6 construct: rat area postrema homogenates; from tissue; host or cells: rat area postrema
T6 sequence (P35563 24-483): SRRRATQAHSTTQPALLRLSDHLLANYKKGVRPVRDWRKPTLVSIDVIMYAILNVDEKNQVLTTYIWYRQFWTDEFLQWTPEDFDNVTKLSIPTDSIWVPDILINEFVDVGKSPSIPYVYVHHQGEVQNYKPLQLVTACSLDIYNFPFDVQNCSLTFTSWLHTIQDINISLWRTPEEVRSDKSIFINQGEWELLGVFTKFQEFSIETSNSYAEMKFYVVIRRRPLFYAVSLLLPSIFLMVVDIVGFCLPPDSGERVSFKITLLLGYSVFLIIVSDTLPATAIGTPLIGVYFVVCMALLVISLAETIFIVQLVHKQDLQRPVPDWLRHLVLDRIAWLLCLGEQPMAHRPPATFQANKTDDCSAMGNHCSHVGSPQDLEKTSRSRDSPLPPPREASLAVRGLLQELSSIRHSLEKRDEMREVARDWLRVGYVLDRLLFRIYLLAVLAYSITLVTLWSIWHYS
Experimental: A-1: Study of the binding of the compounds of the invention to 5-HT3 serotoninergic receptors
The binding of the compounds of the invention to 5-HT3 receptors was determined for each compound by measuring the displacement of ^3 H-zacopride (specific ligand for 5-HT3 receptors) in rat area postrema homogenates.
Aliquot amounts (50-100 μl) of a membrane suspension (2.5-5.0 mg of protein/cm^3) are incubated for 30 minutes at 25° C. in a Tris-HCl buffer, 25 mM, pH 7,4, in the presence of 0.3-0.4 nM 3^H -zacopride (83 ci/mmol) (total volume: 0.5 cm^3). The incubation is terminated by filtering the samples through Whatman GF/B filters which are then washed and dried. The radioactivity retained on the filters is finally calculated by spectrometry in liquid medium (Aquasol). The non-specific binding is evaluated under the same conditions using samples containing in addition 1 μM of ondansetron (5-HT3 antagonist). The displacement curves obtained by adding increasing concentrations of a test compound to the incubation medium are analysed to determine the affinity of the test compounds for 5-HT3 receptors.

[9] = system: mouse; test: Antidepressant activity: forced swimming test on the mouse; type: in vivo; details: i.p. route, last 4 of 6 minutes
Experimental: The antidepressant effects of the compounds of the invention were studied in accordance with the forced swimming test on the mouse. (Behavioural despair in mice: a primary screening test for antidepressants, Porsolt R. D. et al, Arch. Int. Pharmacodyn., (1977), 229, pp. 327-336).
The animals are placed for 6 minutes in a cylinder containing water from which they cannot escape. The period of immobility of the animals is measured for the last 4 minutes of the test. The test compounds are administered in a single dose before the test (imipramine being used as the reference compound).

T3 sequence (P28564 whole entry): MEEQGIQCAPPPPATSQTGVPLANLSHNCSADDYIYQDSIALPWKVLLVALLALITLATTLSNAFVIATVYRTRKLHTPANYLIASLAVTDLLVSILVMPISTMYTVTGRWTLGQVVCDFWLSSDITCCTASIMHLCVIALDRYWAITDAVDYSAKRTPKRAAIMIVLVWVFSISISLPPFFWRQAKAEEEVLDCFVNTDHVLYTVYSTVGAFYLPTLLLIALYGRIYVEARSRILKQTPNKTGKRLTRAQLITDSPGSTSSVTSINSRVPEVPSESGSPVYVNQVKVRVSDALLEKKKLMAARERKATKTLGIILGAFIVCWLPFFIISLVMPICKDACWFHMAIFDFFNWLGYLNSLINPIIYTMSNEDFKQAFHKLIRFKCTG
T4 sequence (P14842 whole entry): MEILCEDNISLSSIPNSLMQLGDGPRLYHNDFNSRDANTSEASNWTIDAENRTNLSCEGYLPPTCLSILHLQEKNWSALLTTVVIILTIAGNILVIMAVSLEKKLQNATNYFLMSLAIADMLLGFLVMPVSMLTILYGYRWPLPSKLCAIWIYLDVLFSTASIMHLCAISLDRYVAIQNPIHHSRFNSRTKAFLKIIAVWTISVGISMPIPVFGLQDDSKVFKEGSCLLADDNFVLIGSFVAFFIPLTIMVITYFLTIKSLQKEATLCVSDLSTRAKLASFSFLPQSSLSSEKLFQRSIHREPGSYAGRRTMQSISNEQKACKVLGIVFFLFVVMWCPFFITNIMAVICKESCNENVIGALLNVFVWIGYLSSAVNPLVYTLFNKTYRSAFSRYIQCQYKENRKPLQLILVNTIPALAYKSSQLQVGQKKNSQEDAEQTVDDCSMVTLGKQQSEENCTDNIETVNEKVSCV
T1 sequence (P31652 whole entry): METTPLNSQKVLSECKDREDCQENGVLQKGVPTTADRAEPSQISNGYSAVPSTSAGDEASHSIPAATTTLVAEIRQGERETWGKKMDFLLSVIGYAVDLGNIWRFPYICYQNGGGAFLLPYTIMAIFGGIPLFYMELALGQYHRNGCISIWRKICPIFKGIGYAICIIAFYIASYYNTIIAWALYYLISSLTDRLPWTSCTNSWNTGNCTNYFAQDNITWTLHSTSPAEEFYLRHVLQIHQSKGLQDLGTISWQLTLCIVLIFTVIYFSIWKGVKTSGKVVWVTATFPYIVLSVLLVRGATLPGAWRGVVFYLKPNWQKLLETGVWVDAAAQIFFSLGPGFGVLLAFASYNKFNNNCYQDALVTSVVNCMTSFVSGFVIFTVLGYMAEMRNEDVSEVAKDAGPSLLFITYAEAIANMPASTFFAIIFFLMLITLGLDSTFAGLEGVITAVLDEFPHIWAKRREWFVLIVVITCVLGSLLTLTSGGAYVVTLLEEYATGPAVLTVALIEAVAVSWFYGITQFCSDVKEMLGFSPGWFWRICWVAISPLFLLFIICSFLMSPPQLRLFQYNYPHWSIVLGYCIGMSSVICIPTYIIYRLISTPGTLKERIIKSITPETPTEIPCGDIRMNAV

Row | Structure (SMILES) | IC50 [1] | IC50 [2] | IC50 [3] | IC50 [4] | IC50 [5] | IC50 [6] | IC50 [7] | IC50 [8] | Period of immobility expressed as a percentage by comparison with the control group ([9]; 32 mg/kg, **p < 0.01) | Period of immobility expressed as a percentage by comparison with the control group ([9]; 64 mg/kg, ***p < 0.001)
1 | CN1CCCC1CON=C1c2sccc2-n2cccc21 (racemic) [Example 13] | 600 nM | 16000 nM | > 100 µM | 31 µM | 11 µM | 14 µM | 1000 nM | 2 nM | – | –
2 | Cc1csc2c1-n1cccc1/C2=N/OCCN(C)C [Example 3, (Z)-8-{[2-(N,N-Dimethylamino)ethoxy]imino}-3-methylthieno[2,3-d]pyrrolo-[1,2-a]pyrrole] | 120 nM | 2200 nM | 5.8 µM | 2.7 µM | 0.48 µM | 3.1 µM | 2100 nM | 0.11 nM | -39% | -86%
3 | CN(C)CCON=C1c2sccc2-n2cccc21 [Example 4] | 890 nM | 550 nM | 0.48 µM | 0.61 µM | 0.41 µM | 5 µM | 820 nM | – | – | –
4 | Cc1csc2c1-n1cccc1/C2=N/OCCCN(C)C [Example 14] | 1100 nM | 11000 nM | 22 µM | 32 µM | 7 µM | 42 µM | 18000 nM | – | – | –
5 | CCN(CC)CCON=C1c2scc(C)c2-n2cccc21 [Example 15] | 130 nM | 11000 nM | 21 µM | 6.4 µM | 4 µM | 13 µM | 840 nM | 5 nM | – | –
6 | Cc1csc2c1-n1cccc1C2=NOCCN1CCCC1 [Example 17] | 300 nM | 3000 nM | 1.6 µM | 3.6 µM | 3.2 µM | 3.7 µM | 710 nM | 2 nM | – | –
7 | Cc1csc2c1-n1cccc1C2=NOCCN1CCCCC1 [Example 18] | 260 nM | 5100 nM | 5.7 µM | 14 µM | 7.5 µM | 5.2 µM | 1200 nM | 4 nM | – | –
8 | Cc1csc2c1-n1cccc1/C2=N/OCC(C)CN(C)C (stereo not drawn) [Example 23] | 5000 nM | 9600 nM | 52 µM | 24 µM | 11 µM | 14 µM | 2000 nM | 5.4 nM | – | –
9 | Cc1csc2c1-n1cccc1C2=NOC(CCN(C)C)c1ccccc1 (stereo not drawn) [Example 39, 3-Methyl-8-{[3-(N,N-dimethylamino)-1-phenylprop-1-yloxy]imino}thieno-[2,3-d]pyrrolo[1,2-a]pyrrole] | 72 nM | 10000 nM | 11 µM | > 100 µM | 6.7 µM | 2.2 µM | 61 nM | 200 nM | -53% | –
10 | Cc1csc2c1-n1cccc1/C2=N/OCCN [Example 40, (Z)-3-Methyl-8-[(2-amino-ethoxy)imino]thieno[2,3-d]pyrrolo[1,2-a]pyrrole] | 580 nM | 900 nM | 3.1 µM | 0.92 µM | 2.7 µM | 15 µM | 180 nM | – | – | –
11 | Cc1csc2c1-n1cccc1/C2=N/OCCNCc1ccccc1 [Example 41, (Z)-3-Methyl-8-{[2-(N-benzylamino)ethoxy]imino}thieno[2,3-d]pyrrolo[1,2-a]-pyrrole] | 110 nM | 2700 nM | 9.2 µM | 4.4 µM | 11 µM | 4.1 µM | 413 nM | – | – | –
12 | CN(C)CCON=C1c2cc(Cl)ccc2-n2cccc21 [Example 49, 7-Chloro-9-{[2-(N,N-dimethylamino)ethoxy]imino}pyrrolo[1,2-a]indole] | 12000 nM | 2400 nM | 21 µM | 1.4 µM | 3.1 µM | 7.6 µM | 11000 nM | 86 nM | – | –
13 | Cc1ccc2c(c1)C(=NOCC(C)N(C)C)c1cccn1-2 (stereo not drawn) [Example 52] | 13000 nM | 2000 nM | 3.3 µM | 3.8 µM | 0.81 µM | 8.4 µM | 2300 nM | 44 nM | – | –
14 | Cc1ccc2c(c1)C(=NOCCC1CCCN1C)c1cccn1-2 (stereo not drawn) [Example 53] | 24000 nM | 8300 nM | 14 µM | 35 µM | 5.5 µM | 22 µM | 6000 nM | 37 nM | – | –
15 | CN(C)CCON=C1c2ccccc2-n2cccc21 [Example 54] | 930 nM | 140 nM | 1.1 µM | 1.1 µM | 0.69 µM | 14 µM | 1400 nM | – | – | –
16 | CC(CON=C1c2ccccc2-n2cccc21)N(C)C (stereo not drawn) [Example 55] | 320 nM | 2800 nM | 3.8 µM | 4.4 µM | 1.4 µM | 12 µM | 4100 nM | 5.3 nM | – | –

Reference: patent US5627203A, “Tricyclic oxime ethers” (Adir et Compagnie, priority 1994, dated 1997)
